Earlier results as cited in patent US20030216871A1, “Calculating a characteristic property of a molecule by correlation analysis” (priority 2001, published 2003).

Assays:
[1] = system: human tumor cells in culture; details: C is average IC50 from assays, values from S. P. Gupta, Chem. Review 94, 1519 (1994); cited from earlier work
[2] = experimental logP used as measured property in R matrix; cited from earlier work
[3] = organic amines, 25C, I = 0; cited from earlier work

Row | Compound | Experimenter value of Active Concentration (log1/C) Against Human Tumor [1] | logP [2] | pK exper [3]
1 | CO[C@@]12[C@H](COC(N)=O)C3=C(C(=O)C(C)=C(N)C3=O)N1C[C@@H]1N[C@@H]12 [Compound 1] | 7.7 | – | –
2 | C#CCNC1=C(C)C(=O)C2=C(C1=O)C(COC(N)=O)C1(OC)C3NC3CN21 (stereo not drawn) [Compound 3] | 8.46 | 0.24 | –
3 | CO[C@@]12[C@H](COC(N)=O)C3=C(C(=O)C(C)=C(NCCc4ccccn4)C3=O)N1C[C@@H]1N[C@@H]12 [Compound 6] | 7.38 | 1.23 | –
4 | COC12C(COC(N)=O)C3=C(C(=O)C(C)=C(Nc4ccccc4)C3=O)N1CC1NC12 (stereo not drawn) [Compound 7] | 8.78 | 1.3 | –
5 | COC12C(COC(N)=O)C3=C(C(=O)C(C)=C(Nc4ccc(N)cc4)C3=O)N1CC1NC12 (stereo not drawn) [Compound 8] | 7.83 | 0.07 | –
6 | COC12C(COC(N)=O)C3=C(C(=O)C(C)=C(Nc4ccc(Br)cc4)C3=O)N1CC1NC12 (stereo not drawn) [Compound 10] | 8.72 | 2.16 | –
7 | COC12C(COC(N)=O)C3=C(C(=O)C(C)=C(Nc4cccc(I)c4)C3=O)N1CC1NC12 (stereo not drawn) [Compound 11] | 8.9 | 2.42 | –
8 | COC12C(COC(N)=O)C3=C(C(=O)C(C)=C(Nc4ccc(I)cc4)C3=O)N1CC1NC12 (stereo not drawn) [Compound 12] | 8.77 | 2.42 | –
9 | COC12C(COC(N)=O)C3=C(C(=O)C(C)=C(Nc4ccc(O)cc4)C3=O)N1CC1NC12 (stereo not drawn) [Compound 13] | 7.88 | 0.63 | –
10 | CO[C@@]12[C@H](COC(N)=O)C3=C(C(=O)C(C)=C(Nc4ccc([N+](=O)[O-])cc4)C3=O)N1C[C@@H]1N[C@@H]12 [Compound 14] | 9.07 | 1.02 | –
11 | COC12C(COC(N)=O)C3=C(C(=O)C(C)=C(Nc4ccc(O)c(I)c4)C3=O)N1CC1NC12 (stereo not drawn) [Compound 15] | 7.76 | 1.75 | –
12 | COC12C(COC(N)=O)C3=C(C(=O)C(C)=C(Nc4ccc(O)c([N+](=O)[O-])c4)C3=O)N1CC1NC12 (stereo not drawn) [Compound 16] | 7.71 | 0.51 | –
13 | CO[C@@]12[C@H](COC(N)=O)C3=C(C(=O)C(C)=C(Nc4ccc5[nH]ccc5c4)C3=O)N1C[C@@H]1N[C@@H]12 [Compound 17] | 8.75 | 2.45 | –
14 | COC12C(COC(N)=O)C3=C(C(=O)C(C)=C(Nc4nc(C)cs4)C3=O)N1CC1NC12 (stereo not drawn) [Compound 18] | 8.69 | 1.52 | –
15 | COC12C(COC(N)=O)C3=C(C(=O)C(C)=C(Nc4cc[nH]n4)C3=O)N1CC1NC12 (stereo not drawn) [Compound 19] | 7.38 | 0.56 | –
16 | COC1=C(C)C(=O)C2=C(C1=O)[C@@H](COC(N)=O)[C@@]1(OC)[C@H]3N[C@H]3CN21 [Compound 20] | 9.52 | 0.26 | –
17 | COC12C(COC(N)=O)C3=C(C(=O)C(C)=C(OC4CC4)C3=O)N1CC1NC12 (stereo not drawn) [Compound 21] | 9.2 | 0.83 | –
18 | CO[C@@]12[C@H](COC(N)=O)C3=C(C(=O)C(C)=C(OCC4CC4)C3=O)N1C[C@@H]1N[C@@H]12 [Compound 22] | 9.43 | – | –
19 | COC12C(COC(N)=O)C3=C(C(=O)C(C)=C(OCC4CCC4)C3=O)N1CC1NC12 (stereo not drawn) [Compound 23] | 9.66 | 2.47 | –
20 | COC12C(COC(N)=O)C3=C(C(=O)C(C)=C(OCc4ccccc4)C3=O)N1CC1NC12 (stereo not drawn) [Compound 24] | 9.21 | 1.94 | –
21 | COC12C(COC(N)=O)C3=C(C(=O)C(C)=C(OCCO)C3=O)N1CC1NC12 (stereo not drawn) [Compound 25] | 8.31 | −1.1 | –
22 | COC12C(COC(N)=O)C3=C(C(=O)C(C)=C(OCCOc4ccccc4)C3=O)N1CC1NC12 (stereo not drawn) [Compound 26] | 9.48 | 1.74 | –
23 | CO[C@@]12[C@H](COC(N)=O)C3=C(C(=O)C(C)=C(OCCOCCO)C3=O)N1C[C@@H]1N[C@@H]12 [Compound 27] | 7.32 | −1.08 | –
24 | COCCOCCOC1=C(C)C(=O)C2=C(C1=O)[C@@H](COC(N)=O)[C@@]1(OC)[C@H]3N[C@H]3CN21 [Compound 28] | 8.24 | −0.46 | –
25 | NC1C=CCCC1 (stereo not drawn) [Compound 95] | – | – | 10.42
26 | CC1=CCCCC1N (stereo not drawn) [Compound 96] | – | – | 10.37
